The record followed here is ChEMBL document CHEMBL1201862, “PubChem BioAssay data set” (2004).

Test systems include NCI-H226; SK-MEL-2; CAKI-1; LOX IMVI; SNB-75; SK-MEL-5; UO-31; HCT-15; Hs-578T; T47D; BT-549; COLO 205; SF-539; SW-620; 786-0; IGROV-1; SF-295; UACC-62; U-251; KM12.
Holding throughout (experiment): NCI-60 cell line screen, 48 h

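A five-concentration, 48-hour dose response in 96-well plates underlies each endpoint, interpolated linearly between surrounding concentrations. At the GI50, growth is halved.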 Calls of active or inactive are those of the source. Cut-off read from the data, not from the text of the source: active = GI50 up to about 1.1 µM and inactive = higher.

Take `CC(C)Cc1ccc(C(C)/C=C2\CCC(CN3CCCCC3)C2=O)cc1` (stereo not given): the GI50 in the assay on NCI-H226 is 14.7 µM (inactive); in the assay with SK-MEL-2 it was 13.3 µM (inactive); in the assay on CAKI-1 it was 6.87 µM (inactive); in the assay with LOX IMVI, 2.01 µM (inactive); with SNB-75, 15.6 µM (inactive); in the assay with SK-MEL-5, 13.5 µM (inactive). The GI50 with UO-31 was 10.6 µM (inactive); in the assay with HCT-15 it was 2.75 µM; with Hs-578T, 4.71 µM (inactive); with T47D, 5.09 µM (inactive); in the assay with BT-549, 18.5 µM (inactive); with COLO 205, 5.81 µM (inactive). The GI50 with SF-539 was 4.54 µM (inactive); in the assay with SW-620 it was 3.45 µM (inactive); in the assay with 786-0 it was 1.85 µM (inactive); in the assay on IGROV-1, 4.25 µM (inactive); in the assay on SF-295, 13.3 µM (inactive); in the assay on UACC-62 it was 10.5 µM (inactive). The GI50 in the assay with U-251 was 2.14 µM (inactive); in the assay on KM12, 2.56 µM (inactive).
For the molecule `CCCCCCCCOC(=O)C12Oc3ccc(-c4ccc5c(c4O)C(=O)C4=C(O)CC(C)C(O)C4(C(=O)OCCCCCCCC)O5)c(O)c3C(=O)C1=C(O)CC(C)C2O` (stereo not given), the GI50 in the assay with NCI-H226 was 33.7 µM (inactive); in the assay with SK-MEL-2, 7.87 µM (inactive); with CAKI-1 it was 25.2 µM (inactive); in the assay on LOX IMVI, 25.5 µM (inactive); with SNB-75 it was 4.99 µM (inactive); in the assay with SK-MEL-5, 14.7 µM (inactive). In addition, the GI50 in the assay on UO-31 is 24.7 µM (inactive); with HCT-15, 25 µM; in the assay on Hs-578T, 11.6 µM (inactive); with T47D, 16.2 µM (inactive); with BT-549, 9.59 µM (inactive); in the assay on COLO 205, 20.9 µM (inactive). The GI50 is 4.21 µM (inactive) with SF-539; 6.85 µM (inactive) in the assay with SW-620; 19.1 µM (inactive) in the assay on 786-0; 8.67 µM (inactive) with IGROV-1; 8.41 µM (inactive) in the assay with SF-295; 15.8 µM (inactive) in the assay on UACC-62. Moreover, the figures for the GI50 with U-251 and with KM12 were 4.06 µM (inactive) and 10.8 µM (inactive), respectively.
`CNC(=O)OCc1c(COC(=O)NC)c(-c2ccc(-c3ccccc3)cc2)n(C)c1C`: the GI50 in the assay with NCI-H226 was 7.98 µM (inactive); in the assay on SK-MEL-2 it was 0.494 µM (active); in the assay on CAKI-1, 0.443 µM (active); in the assay on LOX IMVI, 2.19 µM (inactive); in the assay with SNB-75 it was 2.95 µM (inactive); with SK-MEL-5 it was 3.1 µM (inactive). The GI50 was 1.18 µM (inactive) with UO-31; 2.17 µM with HCT-15; 11 µM (inactive) in the assay with Hs-578T; 2.39 µM (inactive) in the assay on T47D; 1.21 µM (inactive) with BT-549; 4.32 µM (inactive) in the assay with COLO 205. Further, the GI50 in the assay with SF-539 was 1.86 µM (inactive); in the assay with SW-620, 5.48 µM (inactive); in the assay on 786-0, 1.56 µM (inactive); in the assay with IGROV-1 it was 2.24 µM (inactive); in the assay with SF-295 it was 1.43 µM (inactive); in the assay on UACC-62, 1.64 µM (inactive). In addition, the GI50 with U-251 is 1.92 µM (inactive); in the assay with KM12, 8.04 µM (inactive).
Turning to `CCc1nc(N)nc(N)c1-c1ccc(Cl)c([N+](=O)[O-])c1`, the GI50 in the assay on NCI-H226 was 18.2 µM (inactive); with SK-MEL-2, 17.9 µM (inactive); in the assay with CAKI-1 it was 0.242 µM (active); in the assay on LOX IMVI it was 0.0524 µM (active); in the assay on SNB-75 it was 4.29 µM (inactive); in the assay on SK-MEL-5, 0.417 µM (active). For the same molecule, the GI50 is 1.18 µM (inactive) with UO-31; 0.0685 µM in the assay on HCT-15; 28.1 µM (inactive) in the assay with Hs-578T; 10.5 µM (inactive) in the assay with T47D; 31.2 µM (inactive) in the assay with BT-549; 6.71 µM (inactive) in the assay on COLO 205. Further, the GI50 in the assay on SF-539 was 0.325 µM (active); in the assay on SW-620 it was 0.0475 µM (active); in the assay on 786-0 it was 0.0869 µM (active); in the assay with IGROV-1, 0.0778 µM (active); in the assay with SF-295, 0.0637 µM (active); in the assay with UACC-62, 0.0573 µM (active). For the same molecule, the GI50 is 0.126 µM (active) in the assay with U-251 and 0.535 µM (active) in the assay with KM12.
